Here are results for 18 molecules from US4504462A, “Process for making a lyophilized product for use in skeletal imaging” (Mallinckrodt, Inc., priority 1982, dated 1985).

The assay can be described thus: skeletal imaging with scintillation camera. Type of assay: in vivo, adult human subject. As for the experimental part:
An imaging agent is prepared using this kit by adding about 5 ml of a pertechnetate-Tc99m physiological saline with an activity of about 75 mCi, from a commercial technetium source. The kit is agitated until the kit components are dissolved. About 1 ml of the agent is slowly injected, over a period of about 30 seconds, into an adult human subject weighing about 75 kg.

[1] abbreviates: component substituted in the kit of Example 1 or Example II, compared with the original kit.

As for `CC1CC(O)=C(O)C1=O` (stereo not drawn) [5-methyl reductic acid], the “results when substituted in the kit” value under setting [1] is given as “substantially similar results”.
The same measure, in the same setting: under `O=C1O[C@H]([C@@H](O)CBr)C(O)=C1O` [6-bromo-6-deoxyascorbic acid] stands “substantially similar results”; under `O=C1O[C@H]([C@@H](O)CCl)C(O)=C1O` [6-chloro-6-deoxyascorbic acid], “substantially similar results”; under `CC(O)(P(=O)(O)O)P(=O)(O)O` [EHDP, ethane-1-hydroxy-1,1-diphosphonic acid, reference compound], “substantially similar results”.
In the case of `O=P(O)(O)C(O)P(=O)(O)O` [HMDP, methanehydroxydiphosphonic acid, reference compound], the “results when substituted in the kit” value under setting [1] is reported as “substantially similar results”.
With `O=P(O)(O)CP(=O)(O)O` [MDP, methanediphosphonic acid, reference compound], the “results when substituted in the kit” value under setting [1] is “substantially similar results”.
Regarding `O=C1O[C@H]([C@H](O)CO)C(O)=C1O` [erythorbic acid], under setting [1], the “results when substituted in the kit” value is on record as “substantially similar results”.
As for `NCC(O)(P(=O)(O)O)P(=O)(O)O` [ethane-1-hydroxy-2-amino-1,1-diphosphonic acid, reference compound], the “results when substituted in the kit” value under setting [1] is given as “substantially similar results”.
For `CN(C)C(P(=O)(O)O)P(=O)(O)O` [methane-N,N-dimethylaminodiphosphonic acid, reference compound], the “results when substituted in the kit” value under setting [1] is reported as “substantially similar results”.
Same read-out and setting: under `CNC(P(=O)(O)O)P(=O)(O)O` [methane-N-methylaminodiphosphonic acid, reference compound] stands “substantially similar results”; under `NC(P(=O)(O)O)P(=O)(O)O` [methaneaminodiphosphonic acid, reference compound], “substantially similar results”.
For the molecule `O=C1CCC(O)=C1O` [reductic acid], the “results when substituted in the kit” value under setting [1] is listed as “substantially similar results”.
Take `O=C1O[C@H]([C@@H](O)CO)C([O-])=C1O.[Na+]` [sodium ascorbate]: the “results when substituted in the kit” value under setting [1] was “substantially similar results”.
With `O=C1O[C@H]([C@@H](O)CBr)C([O-])=C1O.[Na+]` [sodium-6-bromo-6-deoxyascorbate], the “results when substituted in the kit” value under setting [1] is recorded as “substantially similar results”.
Same read-out and setting: under `O=C1O[C@H]([C@@H](O)CCl)C([O-])=C1O.[Na+]` [sodium-6-chloro-6-deoxyascorbate] stands “substantially similar results”.
As to `O=S(=O)([O-])[O-].[Sn+2]` [stannous sulfate], under setting [1], the “results when substituted in the kit” value is “substantially similar results”.
With `O=C([O-])[C@H](O)[C@@H](O)C(=O)[O-].[Sn+2]` [stannous tartrate], the “results when substituted in the kit” value under setting [1] is reported as “substantially similar results”.
On to stannous fluoride, for which the “results when substituted in the kit” value (in vivo) is given as “substantially similar results”.
